Assay results from the supplement of paper PMC13380429.
± gives the standard deviation of the averaged measurements.

Columns and labels:
Settings in all cases: 72 h
Calu-3 [1] = assay: cell viability relative to DMSO; higher = less toxic
Caco-2 [2] = assay: as above
HepG2 [3] = assay: as above
Vero E6 [4] = assay: as above
U2OS [5] = assay: as above
Calu-3 [6] = assay: relative viability EC50 (midpoint between 100% and the lowest measured viability); higher = less toxic
Caco-2 [7] = assay: as above
HepG2 [8] = assay: as above
Vero E6 [9] = assay: as above
U2OS [10] = assay: as above
Calu-3 [11] = assay: drug sensitivity score (DSS) for viability; higher = more toxic; extreme values may be limits of the assay
Caco-2 [12] = assay: as above
HepG2 [13] = assay: as above
Vero E6 [14] = assay: as above
U2OS [15] = assay: as above

Structure (SMILES)	cell viability (Calu-3 [1]; 1 nM)	cell viability (Calu-3 [1]; 10 nM)	cell viability (Calu-3 [1]; 100 nM)	cell viability (Calu-3 [1]; 1000 nM)	cell viability (Calu-3 [1]; 10000 nM)	cell viability (Caco-2 [2]; 1 nM)	cell viability (Caco-2 [2]; 10 nM)	cell viability (Caco-2 [2]; 100 nM)	cell viability (Caco-2 [2]; 1000 nM)	cell viability (Caco-2 [2]; 10000 nM)	cell viability (HepG2 [3]; 1 nM)	cell viability (HepG2 [3]; 10 nM)	cell viability (HepG2 [3]; 100 nM)	cell viability (HepG2 [3]; 1000 nM)	cell viability (HepG2 [3]; 10000 nM)	cell viability (Vero E6 [4]; 1 nM)	cell viability (Vero E6 [4]; 10 nM)	cell viability (Vero E6 [4]; 100 nM)	cell viability (Vero E6 [4]; 1000 nM)	cell viability (Vero E6 [4]; 10000 nM)	cell viability (U2OS [5]; 1 nM)	cell viability (U2OS [5]; 10 nM)	cell viability (U2OS [5]; 100 nM)	cell viability (U2OS [5]; 1000 nM)	cell viability (U2OS [5]; 10000 nM)	relative viability EC50 (Calu-3 [6])	relative viability EC50 (Caco-2 [7])	relative viability EC50 (HepG2 [8])	relative viability EC50 (Vero E6 [9])	relative viability EC50 (U2OS [10])	drug sensitivity score (Calu-3 [11])	drug sensitivity score (Caco-2 [12])	drug sensitivity score (HepG2 [13])	drug sensitivity score (Vero E6 [14])	drug sensitivity score (U2OS [15])
CCCCCCCCCCCCCCSCC(=O)O [tetradecylthioacetic-acid]	95.2%	102%	99.1%	108%	109%	93.1%	104%	104%	83.9%	108%	90.8%	102%	86.4%	102%	119%	103%	95.6%	98.2%	99.2%	94.6%	98.1%	101%	93.5%	97.2%	100%	> 10 µM	> 10 µM	> 10 µM	> 10 µM	> 10 µM	0	0	0	0	0
COc1ncc(-c2ccc3nccc(-c4ccnnc4)c3c2)cc1NS(=O)(=O)c1ccc(F)cc1F	79.4%	47.4%	22.2%	19.5%	17.4%	84.8%	60.2%	19%	25.3%	28.8%	98.8%	77.2%	46.3%	25%	29.2%	90.2%	80.1%	38.9%	22.6%	15.1%	91%	80.3%	34.2%	13.9%	0.9%	0.0044 µM	0.0081 µM	0.0297 µM	0.0351 µM	0.0484 µM	32.5	29.8	22.2	24.1	26.2
C[C@@H](O[C@H]1OCCN(Cc2nn(P(=O)(O)O)c(=O)[nH]2)[C@H]1c1ccc(F)cc1)c1cc(C(F)(F)F)cc(C(F)(F)F)c1 [fosaprepitant-dimeglumine]	99.7%	93.8%	102%	93.8%	108%	98.4%	95.1%	93.2%	102%	90.8%	93.6%	93.4%	88.7%	91.9%	89.6%	92.5%	97.3%	97.9%	99.6%	99.7%	98.6%	103%	95.4%	96.1%	86.4%	> 10 µM	> 10 µM	> 10 µM	> 10 µM	> 10 µM	0	0	0.1	0	0.1
COC(c1ccccc1)(c1ccccc1)[C@H](Oc1nc(C)cc(C)n1)C(=O)O [ambrisentan]	105%	101%	84.6%	88.9%	97%	104%	98.2%	95.1%	97.1%	90.5%	102%	98.4%	95.3%	107%	98.3%	99.9%	99.1%	94.4%	97.4%	102%	101%	101%	94.2%	99.5%	95.7%	> 10 µM	> 10 µM	> 10 µM	> 10 µM	> 10 µM	2.7	0	0	0	0
C[C@]12CCC(=O)C[C@@H]1CC[C@@H]1[C@@H]2CC[C@]2(C)[C@@H](O)CC[C@@H]12 [Dihydrotestosterone]	97.6%	99.9%	101%	98.9%	94.3%	108%	93.1%	103%	102%	97.5%	112%	95.8%	99.3%	106%	95.3%	106%	99.3%	101%	100%	104%	98.2%	104%	94.8%	103%	98.9%	> 10 µM	> 10 µM	> 10 µM	> 10 µM	> 10 µM	0	0	0	0	0
CN1C(=O)C[C@@H](C(=O)N[C@@H](Cc2c[nH]cn2)C(=O)N2CCC[C@H]2C(N)=O)NC1=O [taltirelin]	96.3%	94.7%	101%	97.8%	84.9%	101%	100%	97.2%	97.6%	95.9%	106%	99.6%	99%	104%	108%	99%	96.8%	104%	97.4%	98.3%	105%	96.2%	99.5%	98.1%	101%	> 10 µM	> 10 µM	> 10 µM	> 10 µM	> 10 µM	0.5	0	0	0	0
O=C(c1cc(C2CC2)on1)N(C1CCCCC1)C1CCCCC1 [CYM-5541]	102%	98.1%	97.2%	96.8%	99%	94.9%	97.8%	97.5%	99.4%	90%	98.6%	93.9%	98.4%	92.3%	89.6%	106%	103%	99.5%	95.3%	99.6%	98%	97.8%	96.3%	97.2%	94.4%	> 10 µM	> 10 µM	> 10 µM	> 10 µM	> 10 µM	0	0	0	0	0
O=C(O)CNC(=O)C(CS)Cc1ccccc1 (stereo not given) [thiorphan]	103%	99.5%	98.6%	95.5%	114%	107%	99%	86.2%	102%	110%	94.2%	90.9%	99.7%	92.1%	95.7%	107%	95%	94.3%	101%	104%	99.4%	103%	98.7%	98.7%	96.9%	> 10 µM	> 10 µM	> 10 µM	> 10 µM	> 10 µM	0	0	0	0	0
O=C1CCC[C@@H]2[C@H]3C[C@@H](CN12)[C@@H]1CCCCN1C3 [lupanine]	87.2%	96.8%	99.5%	95.5%	94.4%	103%	92.8%	90.4%	87.2%	91.4%	99.4%	95.7%	93%	110%	93.7%	92.1%	97.9%	93.8%	98.1%	95.7%	101%	96.2%	98.6%	94%	100%	> 10 µM	> 10 µM	> 10 µM	> 10 µM	> 10 µM	0	1.8	0	0	0
CC(=O)O[C@]1(C(C)=O)CC[C@H]2[C@@H]3C[C@H](C)C4=CC(=O)CC[C@]4(C)[C@H]3CC[C@@]21C [medroxyprogesterone-acetate]	99.8%	106%	95.6%	101%	103%	92.6%	103%	94.5%	101%	95.8%	110%	103%	99.1%	95.1%	97.3%	96.6%	97.9%	100%	98.3%	98.2%	97.1%	99%	97%	96.2%	96.5%	> 10 µM	> 10 µM	> 10 µM	> 10 µM	> 10 µM	0	0	0	0	0
c1ccc2sc(SN3CCOCC3)nc2c1 [N-oxydiethylenebenzothiazole-2-sulfenamide]	104%	101%	97.4%	83.3%	110%	86.7%	92.6%	92.5%	92.5%	93.8%	101%	97.1%	98.9%	115%	111%	97%	94.5%	99.6%	104%	112%	96.9%	105%	94.1%	99.1%	102%	> 10 µM	> 10 µM	> 10 µM	> 10 µM	> 10 µM	0	0	0	0	0
CC(C)(O)CC(=O)O [beta-hydroxy-beta-methylbutyrate]	98.7%	100%	105%	102%	113%	102%	92.2%	99.4%	92.6%	97.2%	91.8%	94.3%	101%	104%	93.3%	106%	108%	101%	99.5%	100%	105%	99.5%	98.1%	95.9%	99.5%	> 10 µM	> 10 µM	> 10 µM	> 10 µM	> 10 µM	0	0	0	0	0
O=C(Cn1c(=O)sc2ccc(Cl)cc21)N1CCN(CCO)CC1 [tiaramide]	92.2%	101%	90.6%	92.4%	105%	112%	91.4%	96.7%	96.3%	101%	94.9%	109%	108%	88.8%	89.3%	107%	95.2%	94.3%	101%	93.4%	101%	101%	98.7%	100%	98.7%	> 10 µM	> 10 µM	> 10 µM	> 10 µM	> 10 µM	0	0	0.2	0	0
COC(=O)C1=C(C)NC(C)=C(C(=O)OCCCN2CCC(c3ccccc3)(c3ccccc3)CC2)[C@@H]1c1cccc([N+](=O)[O-])c1 [dexniguldipine]	103.7 ± 0.42%	94 ± 2.3%	104.1 ± 0.71%	99.2 ± 7.6%	15.8 ± 14%	99.8 ± 0.28%	100 ± 0.71%	97.7 ± 7.6%	91.4 ± 0.42%	40.8 ± 7.7%	102 ± 14%	101 ± 3.4%	94.7 ± 3.8%	102 ± 3%	16.8 ± 2%	94 ± 1.9%	99.7 ± 2.5%	95 ± 3.6%	94.35 ± 0.92%	39.5 ± 2.3%	102 ± 2.6%	102 ± 2.5%	100.8 ± 0.21%	94.3 ± 7.8%	20.8 ± 17%	3.03 µM	2.01 µM	3.26 µM	2.39 µM	2.61 µM	4.95 ± 1.8	4.65 ± 0.49	4.5 ± 0.14	4.2	5.3 ± 2.3
